The text below walks through data of patent US20050288280A1, “Meloxicam in veterinary medicine” (Boehringer Ingelheim Vetmedica GmbH, priority 2004, published 2005).

In assay [1] the test system is dairy cows with clinical mild or moderate mastitis. Nature of the assay: Clinical field study: response thresholds to mechanical stimuli (hypersensitivity) in dairy cows with clinical mastitis. Particulars: adjunct to intramammary cefquinome, hind limbs, 6-8 examinations over 45 days, meloxicam groups vs antibiotics alone P<0.001. Type of assay: in vivo. The protocol: Therefore, as already mentioned, dairy cows were studied to assess pain associated with moderate or mild mastitis. Based on the abovementioned study directed to the newly established method for the measurement of pain in food producing animals, a clinical field study was used to investigate, besides painful chronic conditions in cows with mild and moderate mastitis, the analgesic efficacy and long duration of action of meloxicam. In such clinical field study, meloxicam was administered only once as adjunct to intramammary antibiotic therapy and was compared to a second group where animals received re-treatments with meloxicam after 3 and 6 days. A third group received the antibiotic stand alone therapy. The distance between the hocks was measured as a proxy indicator of altered cow stance. Response thresholds to mechanical stimuli were measured on each hind limb using a modification of the method described by Nolan and others (A. Nolan, A. Livingston, R. Morris, and A. Waterman, Techniques for comparison of thermal and mechanical nociceptive stimuli in the sheep, J. Pharmacol. Methods 1987, 17, pp. 39-49). […] Response thresholds to mechanical stimuli were measured on each hind limb. […]

A further assay relates to dairy cows. The conditions noted are these: administered intramammarily in dairy cows; cited from earlier work.

Each structure is given as a SMILES string.

Take `CO/N=C(\C(=O)N[C@@H]1C(=O)N2C(C(=O)[O-])=C(C[n+]3cccc4c3CCCC4)CS[C@H]12)c1csc(N)n1` [antibiotics, cefquinome]: the “threshold responses to mechanical stimuli (mechanical hyperalgesia)” value in assay [1] is listed as “greater differences”.
Regarding `Cc1c(Nc2ncccc2C(=O)O)cccc1C(F)(F)F` [flunixin meglumine], the “long lasting analgesic activity” value in the assay on dairy cows was “did not achieve a long lasting analgesic activity”.
